Test results from ChEMBL document CHEMBL5463729, “Data for DCP probe BAY 1753011” (2023).

What was measured:
Details in all cases: Compound concentration 10.0 uM
[1] = molecular target: GABA-A receptor; anion channel (Rattus norvegicus) (UniProt O09028+P15431+P18506+P18508+P19969+P20236+P23574+P23576+P28471+P28473+P30191+P62813+P63079+P63138+Q91ZM7+Q9ES14)
[2] = molecular target: Serine/threonine-protein kinase 38 (Homo sapiens) (UniProt Q15208); assay: Inhibition of NDR1(h) at 10.0 µM in the Eurofins Kinase panel
[3] = molecular target: Cyclin-dependent kinase-like 3 (Homo sapiens) (UniProt Q8IVW4); assay: Inhibition of CDKL3(h) at 10.0 µM in the Eurofins Kinase panel
[4] = molecular target: Cyclin-dependent kinase-like 4 (Homo sapiens) (UniProt Q5MAI5); assay: Inhibition of CDKL4(h) at 10.0 µM in the Eurofins Kinase panel
[5] = molecular target: Tyrosine-protein kinase ITK/TSK (Homo sapiens) (UniProt Q08881); assay: Inhibition of Itk(h) at 10.0 µM in the Eurofins Kinase panel
[6] = molecular target: Ephrin type-B receptor 2 (Homo sapiens) (UniProt P29323); assay: Inhibition of EphB2(h) at 10.0 µM in the Eurofins Kinase panel
Ephrin type-B receptor 2 (Homo sapiens), sequence (P29323 whole entry): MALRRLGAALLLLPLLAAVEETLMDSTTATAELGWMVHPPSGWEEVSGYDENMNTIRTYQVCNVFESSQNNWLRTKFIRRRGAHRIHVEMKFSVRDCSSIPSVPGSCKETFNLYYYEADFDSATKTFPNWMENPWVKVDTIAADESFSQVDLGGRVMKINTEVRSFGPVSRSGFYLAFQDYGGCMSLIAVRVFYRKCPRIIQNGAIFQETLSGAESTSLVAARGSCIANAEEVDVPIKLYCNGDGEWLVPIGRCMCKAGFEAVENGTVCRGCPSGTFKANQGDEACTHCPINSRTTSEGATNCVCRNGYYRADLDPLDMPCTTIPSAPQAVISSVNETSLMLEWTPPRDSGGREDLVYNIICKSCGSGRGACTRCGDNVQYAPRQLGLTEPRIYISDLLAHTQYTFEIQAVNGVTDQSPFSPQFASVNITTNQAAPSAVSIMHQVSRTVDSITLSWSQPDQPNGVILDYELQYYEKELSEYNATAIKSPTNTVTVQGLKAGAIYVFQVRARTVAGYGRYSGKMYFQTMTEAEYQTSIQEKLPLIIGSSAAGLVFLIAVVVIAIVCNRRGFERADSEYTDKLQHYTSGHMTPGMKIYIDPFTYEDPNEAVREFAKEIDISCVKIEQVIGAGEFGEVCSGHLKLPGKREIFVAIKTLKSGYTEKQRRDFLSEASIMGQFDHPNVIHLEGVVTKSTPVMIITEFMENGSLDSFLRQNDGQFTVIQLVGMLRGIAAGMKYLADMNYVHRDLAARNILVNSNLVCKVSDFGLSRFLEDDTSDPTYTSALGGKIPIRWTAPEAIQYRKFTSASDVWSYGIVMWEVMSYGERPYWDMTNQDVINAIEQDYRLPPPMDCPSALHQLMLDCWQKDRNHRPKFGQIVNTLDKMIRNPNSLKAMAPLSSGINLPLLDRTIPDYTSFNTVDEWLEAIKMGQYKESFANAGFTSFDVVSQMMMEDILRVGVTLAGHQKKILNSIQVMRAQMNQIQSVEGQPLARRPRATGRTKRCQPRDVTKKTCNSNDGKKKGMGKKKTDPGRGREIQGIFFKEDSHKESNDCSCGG

[7] = molecular target: Mitogen-activated protein kinase 11 (Homo sapiens) (UniProt Q15759); assay: Inhibition of SAPK2b(h) at 10.0 µM in the Eurofins Kinase panel
Mitogen-activated protein kinase 11 (Homo sapiens), sequence (Q15759 whole entry): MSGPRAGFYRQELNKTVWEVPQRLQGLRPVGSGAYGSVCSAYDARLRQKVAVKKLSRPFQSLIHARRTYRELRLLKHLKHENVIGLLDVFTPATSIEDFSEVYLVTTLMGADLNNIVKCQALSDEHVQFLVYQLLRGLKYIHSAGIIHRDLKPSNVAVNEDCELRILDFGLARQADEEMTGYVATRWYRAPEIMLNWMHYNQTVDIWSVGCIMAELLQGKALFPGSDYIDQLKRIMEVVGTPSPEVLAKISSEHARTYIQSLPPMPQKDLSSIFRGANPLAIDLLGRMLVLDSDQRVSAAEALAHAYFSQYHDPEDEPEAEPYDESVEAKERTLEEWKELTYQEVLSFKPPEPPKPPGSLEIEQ

[8] = molecular target: Ephrin type-A receptor 3 (Homo sapiens) (UniProt P29320); assay: Inhibition of EphA3(h) at 10.0 µM in the Eurofins Kinase panel
[9] = molecular target: Casein kinase I isoform alpha (Homo sapiens) (UniProt P48729); assay: Inhibition of CK1alpha(h) at 10.0 µM in the Eurofins Kinase panel
[10] = molecular target: Myotonin-protein kinase (Homo sapiens) (UniProt Q09013); assay: Inhibition of DMPK(h) at 10.0 µM in the Eurofins Kinase panel
[11] = molecular target: Mitogen-activated protein kinase kinase kinase 5 (Homo sapiens) (UniProt Q99683); assay: Inhibition of ASK1(h) at 10.0 µM in the Eurofins Kinase panel
[12] = molecular target: Serine/threonine-protein kinase MRCK alpha (Homo sapiens) (UniProt Q5VT25); assay: Inhibition of MRCKalpha(h) at 10.0 µM in the Eurofins Kinase panel
[13] = molecular target: Adenosine receptor A1 (Homo sapiens) (UniProt P30542)
Adenosine receptor A1 (Homo sapiens), sequence (P30542 whole entry): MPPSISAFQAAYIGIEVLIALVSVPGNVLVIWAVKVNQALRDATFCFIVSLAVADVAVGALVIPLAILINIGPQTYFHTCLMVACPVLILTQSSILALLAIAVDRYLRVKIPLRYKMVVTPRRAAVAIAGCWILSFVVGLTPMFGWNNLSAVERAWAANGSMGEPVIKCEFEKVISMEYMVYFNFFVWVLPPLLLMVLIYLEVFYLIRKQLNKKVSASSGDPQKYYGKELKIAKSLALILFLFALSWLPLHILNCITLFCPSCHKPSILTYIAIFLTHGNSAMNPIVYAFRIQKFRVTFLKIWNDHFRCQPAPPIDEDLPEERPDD

[14] = molecular target: Vascular endothelial growth factor receptor 3 (Homo sapiens) (UniProt P35916); assay: Inhibition of Flt4(h) at 10.0 µM in the Eurofins Kinase panel
[15] = molecular target: Delta-type opioid receptor (Homo sapiens) (UniProt P41143)
Delta-type opioid receptor (Homo sapiens), sequence (P41143 whole entry): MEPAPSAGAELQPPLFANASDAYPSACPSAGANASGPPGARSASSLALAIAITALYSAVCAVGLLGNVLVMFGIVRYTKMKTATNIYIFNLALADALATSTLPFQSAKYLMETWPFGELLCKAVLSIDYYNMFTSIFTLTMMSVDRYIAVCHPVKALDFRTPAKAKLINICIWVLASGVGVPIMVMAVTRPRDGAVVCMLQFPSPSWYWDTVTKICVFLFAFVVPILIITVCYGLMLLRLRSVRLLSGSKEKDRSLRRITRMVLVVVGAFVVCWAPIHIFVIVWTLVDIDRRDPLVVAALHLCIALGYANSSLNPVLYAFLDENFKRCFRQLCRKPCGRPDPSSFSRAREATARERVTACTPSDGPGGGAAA

[16] = molecular target: Mitogen-activated protein kinase kinase kinase 3 (Homo sapiens) (UniProt Q99759); assay: Inhibition of MEKK3(h) at 10.0 µM in the Eurofins Kinase panel
[17] = molecular target: Beta-2 adrenergic receptor (Homo sapiens) (UniProt P07550)
[18] = molecular target: Tyrosine-protein kinase Lyn (Homo sapiens) (UniProt P07948); assay: Inhibition of Lyn(h) at 10.0 µM in the Eurofins Kinase panel
Tyrosine-protein kinase Lyn (Homo sapiens), sequence (P07948 2-512 limits assumed): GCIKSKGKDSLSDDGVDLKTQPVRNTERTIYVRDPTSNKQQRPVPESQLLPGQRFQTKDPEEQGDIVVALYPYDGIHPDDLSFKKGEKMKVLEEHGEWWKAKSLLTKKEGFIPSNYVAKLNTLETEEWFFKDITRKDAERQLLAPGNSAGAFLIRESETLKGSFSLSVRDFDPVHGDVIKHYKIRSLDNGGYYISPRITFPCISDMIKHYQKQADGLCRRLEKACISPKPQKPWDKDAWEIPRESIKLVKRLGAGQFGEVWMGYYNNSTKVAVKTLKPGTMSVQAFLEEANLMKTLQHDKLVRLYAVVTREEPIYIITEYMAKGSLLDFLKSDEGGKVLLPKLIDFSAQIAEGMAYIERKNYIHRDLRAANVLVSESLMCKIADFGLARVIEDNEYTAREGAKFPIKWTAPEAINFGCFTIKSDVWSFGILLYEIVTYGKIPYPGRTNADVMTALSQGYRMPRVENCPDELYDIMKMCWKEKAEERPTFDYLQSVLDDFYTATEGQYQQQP

[19] = molecular target: Epidermal growth factor receptor (Homo sapiens) (UniProt P00533); assay: Inhibition of EGFR(h) at 10.0 µM in the Eurofins Kinase panel
[20] = molecular target: 5'-AMP-activated protein kinase catalytic subunit alpha-1 (Homo sapiens) (UniProt Q13131); assay: Inhibition of AMPKalpha1(h) at 10.0 µM in the Eurofins Kinase panel
[21] = molecular target: Protein kinase C gamma type (Homo sapiens) (UniProt P05129); assay: Inhibition of PKCgamma(h) at 10.0 µM in the Eurofins Kinase panel
[22] = molecular target: Mitogen-activated protein kinase kinase kinase 21 (Homo sapiens) (UniProt Q5TCX8); assay: Inhibition of MLK4(h) at 10.0 µM in the Eurofins Kinase panel
[23] = molecular target: SRSF protein kinase 3 (Homo sapiens) (UniProt Q9UPE1); assay: Inhibition of MSSK1(h) at 10.0 µM in the Eurofins Kinase panel
[24] = molecular target: Protein-tyrosine kinase 6 (Homo sapiens) (UniProt Q13882); assay: Inhibition of BRK(h) at 10.0 µM in the Eurofins Kinase panel
[25] = molecular target: RAC-gamma serine/threonine-protein kinase (Homo sapiens) (UniProt Q9Y243); assay: Inhibition of PKBgamma(h) at 10.0 µM in the Eurofins Kinase panel
[26] = molecular target: Serine/threonine-protein kinase MRCK beta (Homo sapiens) (UniProt Q9Y5S2); assay: Inhibition of MRCKbeta(h) at 10.0 µM in the Eurofins Kinase panel
[27] = molecular target: Serine/threonine-protein kinase SIK2 (Homo sapiens) (UniProt Q9H0K1); assay: Inhibition of SIK2(h) at 10.0 µM in the Eurofins Kinase panel
[28] = molecular target: Ephrin type-A receptor 5 (Homo sapiens) (UniProt P54756); assay: Inhibition of EphA5(h) at 10.0 µM in the Eurofins Kinase panel
Ephrin type-A receptor 5 (Homo sapiens), sequence (P54756 whole entry): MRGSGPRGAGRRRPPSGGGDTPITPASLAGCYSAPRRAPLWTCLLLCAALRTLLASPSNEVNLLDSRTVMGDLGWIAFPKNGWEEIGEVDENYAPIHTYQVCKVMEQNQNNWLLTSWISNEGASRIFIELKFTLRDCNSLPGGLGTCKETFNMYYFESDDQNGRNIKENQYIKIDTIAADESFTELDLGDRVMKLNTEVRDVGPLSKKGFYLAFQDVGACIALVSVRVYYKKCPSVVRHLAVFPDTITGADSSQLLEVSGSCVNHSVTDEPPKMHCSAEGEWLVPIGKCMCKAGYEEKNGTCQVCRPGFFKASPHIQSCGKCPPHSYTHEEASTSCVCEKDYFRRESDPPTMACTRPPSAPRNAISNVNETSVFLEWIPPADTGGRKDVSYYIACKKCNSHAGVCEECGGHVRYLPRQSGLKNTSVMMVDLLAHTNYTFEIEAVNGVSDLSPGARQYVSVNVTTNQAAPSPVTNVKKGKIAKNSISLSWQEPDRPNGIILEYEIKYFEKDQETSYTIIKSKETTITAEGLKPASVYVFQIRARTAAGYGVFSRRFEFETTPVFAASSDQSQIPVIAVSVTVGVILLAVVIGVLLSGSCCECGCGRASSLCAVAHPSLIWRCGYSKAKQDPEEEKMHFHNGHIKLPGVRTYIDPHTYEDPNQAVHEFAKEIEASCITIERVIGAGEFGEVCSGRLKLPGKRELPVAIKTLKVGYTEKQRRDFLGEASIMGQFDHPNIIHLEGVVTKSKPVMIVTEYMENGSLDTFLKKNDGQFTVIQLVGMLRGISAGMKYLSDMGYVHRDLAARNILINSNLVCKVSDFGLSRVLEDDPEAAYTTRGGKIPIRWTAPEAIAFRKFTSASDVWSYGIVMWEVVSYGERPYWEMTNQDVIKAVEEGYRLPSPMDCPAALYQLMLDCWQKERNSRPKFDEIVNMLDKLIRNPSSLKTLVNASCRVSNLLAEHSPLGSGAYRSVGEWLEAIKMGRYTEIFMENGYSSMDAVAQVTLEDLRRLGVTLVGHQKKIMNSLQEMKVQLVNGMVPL

[29] = molecular target: Sodium-dependent noradrenaline transporter (Homo sapiens, UniProt P23975)
[30] = molecular target: Leukocyte tyrosine kinase receptor (Homo sapiens) (UniProt P29376); assay: Inhibition of LTK(h) at 10.0 µM in the Eurofins Kinase panel
Leukocyte tyrosine kinase receptor (Homo sapiens), sequence (P29376 whole entry): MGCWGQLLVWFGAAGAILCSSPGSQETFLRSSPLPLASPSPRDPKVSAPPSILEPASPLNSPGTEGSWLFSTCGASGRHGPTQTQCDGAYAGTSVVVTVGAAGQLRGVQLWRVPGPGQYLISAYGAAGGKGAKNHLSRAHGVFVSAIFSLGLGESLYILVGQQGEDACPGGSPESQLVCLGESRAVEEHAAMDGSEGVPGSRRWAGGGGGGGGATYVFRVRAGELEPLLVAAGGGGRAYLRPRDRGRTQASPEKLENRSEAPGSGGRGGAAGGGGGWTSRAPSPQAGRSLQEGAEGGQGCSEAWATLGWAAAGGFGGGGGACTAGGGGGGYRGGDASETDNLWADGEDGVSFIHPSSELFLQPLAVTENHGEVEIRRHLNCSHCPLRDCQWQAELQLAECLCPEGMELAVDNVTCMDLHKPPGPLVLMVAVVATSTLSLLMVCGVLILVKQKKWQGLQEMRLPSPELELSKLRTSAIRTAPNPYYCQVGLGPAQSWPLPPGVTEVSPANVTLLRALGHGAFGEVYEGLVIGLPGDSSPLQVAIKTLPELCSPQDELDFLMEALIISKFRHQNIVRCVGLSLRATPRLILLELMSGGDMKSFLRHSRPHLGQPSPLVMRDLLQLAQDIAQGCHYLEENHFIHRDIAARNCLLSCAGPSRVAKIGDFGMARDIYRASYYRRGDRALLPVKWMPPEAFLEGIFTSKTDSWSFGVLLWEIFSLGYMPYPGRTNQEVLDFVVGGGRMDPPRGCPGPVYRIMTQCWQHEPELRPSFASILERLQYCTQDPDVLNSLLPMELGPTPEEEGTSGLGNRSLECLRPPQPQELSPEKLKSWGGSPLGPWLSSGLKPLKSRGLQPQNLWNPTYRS

[31] = molecular target: CDK18/Cyclin Y (Homo sapiens) (UniProt Q07002+Q8ND76); assay: Inhibition of CDK18/cyclinY(h) at 10.0 µM in the Eurofins Kinase panel; format: protein-complex assay
[32] = molecular target: Tyrosine-protein kinase FRK (Homo sapiens) (UniProt P42685); assay: Inhibition of PTK5(h) at 10.0 µM in the Eurofins Kinase panel
Tyrosine-protein kinase FRK (Homo sapiens), sequence (P42685 whole entry): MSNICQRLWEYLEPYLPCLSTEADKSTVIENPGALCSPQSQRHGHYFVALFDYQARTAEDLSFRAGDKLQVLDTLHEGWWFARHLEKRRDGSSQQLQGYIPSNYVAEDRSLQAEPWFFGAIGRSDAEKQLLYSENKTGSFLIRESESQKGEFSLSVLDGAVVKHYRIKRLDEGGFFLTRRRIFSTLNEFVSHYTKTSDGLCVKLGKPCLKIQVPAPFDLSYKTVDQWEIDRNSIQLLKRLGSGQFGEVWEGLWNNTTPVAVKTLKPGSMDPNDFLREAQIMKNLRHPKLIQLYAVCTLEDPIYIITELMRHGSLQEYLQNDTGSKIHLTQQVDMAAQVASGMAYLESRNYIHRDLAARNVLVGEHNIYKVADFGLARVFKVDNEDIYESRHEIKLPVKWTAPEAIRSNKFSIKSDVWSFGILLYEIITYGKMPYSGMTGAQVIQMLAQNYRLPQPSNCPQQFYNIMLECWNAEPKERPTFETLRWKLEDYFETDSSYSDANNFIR

[33] = molecular target: Casein kinase II subunit alpha' (Homo sapiens) (UniProt P19784); assay: Inhibition of CK2alpha2(h) at 10.0 µM in the Eurofins Kinase panel

Structure (SMILES) | inhibition [1] [%] | inhibition [2] [%] | inhibition [3] [%] | inhibition [4] [%] | inhibition [5] [%] | inhibition [6] [%] | inhibition [7] [%] | inhibition [8] [%] | inhibition [9] [%] | inhibition [10] [%] | inhibition [11] [%] | inhibition [12] [%] | inhibition [13] [%] | inhibition [14] [%] | inhibition [15] [%] | inhibition [16] [%] | inhibition [17] [%] | inhibition [18] [%] | inhibition [19] [%] | inhibition [20] [%] | further results
O=c1n(Cc2cncn2-c2cccc(Cl)c2)nc(-c2ccc(Cl)cc2)n1C[C@H](O)C(F)(F)F | 12 | -2.95 | -5.87 | -1.89 | -2.65 | -4.8 | -0.67 | 1.3 | -1.11 | 4.48 | -1.47 | -4.95 | 8 | 11.3 | 12.4 | 7.5 | 0 | -1.91 | -4.73 | -6.67 | inhibition [21]: -1.26%; inhibition [22]: 8.45%; inhibition [23]: 9.31%; inhibition [24]: -7.96%; inhibition [25]: 2.13%; inhibition [26]: -6.31%; inhibition [27]: 1.82%; inhibition [28]: -7.8%; inhibition [29]: 8%; inhibition [30]: 5.77%; inhibition [31]: -1.75%; inhibition [32]: 0.3%; inhibition [33]: 6.42%
C[C@H](O)c1nc(Cn2nc(-c3ccc(Cl)cc3)n(C[C@H](O)C(F)(F)F)c2=O)nn1-c1cccc(Cl)c1 [PECAVAPTAN] | 30 | -4.67 | 0.32 | 5.63 | -7.19 | 6.86 | 1.32 | -7.49 | -1.65 | 12.7 | -8.63 | -2.43 | 26 | 4.21 | 15.4 | 2.27 | 9 | -5.89 | -5.82 | -4.1 | inhibition [21]: 3.24%; inhibition [22]: 6.1%; inhibition [23]: -9.95%; inhibition [24]: -3.8%; inhibition [25]: -6.69%; inhibition [26]: -2.21%; inhibition [27]: -3.07%; inhibition [28]: -3.72%; inhibition [29]: 62%; inhibition [30]: 4.2%; inhibition [31]: 2.34%; inhibition [32]: 0.28%; inhibition [33]: -3.46%
